# Results reported in ChEMBL document CHEMBL1134351, “Synthesis of new cyclitol compounds that influence the activity of phosphatidylinositol 4-kinase isoform, PI4K230” (J Med Chem, 2001).
# Molecular target: Phosphatidylinositol 4-kinase alpha (Bos taurus) (UniProt O02811)
# Assay: Inactivation of the enzyme PI4K230 from bovine brain membranes
# Set-up: concentration or dose not given beside the values
# Sequence of Phosphatidylinositol 4-kinase alpha (Bos taurus) (O02811 whole entry): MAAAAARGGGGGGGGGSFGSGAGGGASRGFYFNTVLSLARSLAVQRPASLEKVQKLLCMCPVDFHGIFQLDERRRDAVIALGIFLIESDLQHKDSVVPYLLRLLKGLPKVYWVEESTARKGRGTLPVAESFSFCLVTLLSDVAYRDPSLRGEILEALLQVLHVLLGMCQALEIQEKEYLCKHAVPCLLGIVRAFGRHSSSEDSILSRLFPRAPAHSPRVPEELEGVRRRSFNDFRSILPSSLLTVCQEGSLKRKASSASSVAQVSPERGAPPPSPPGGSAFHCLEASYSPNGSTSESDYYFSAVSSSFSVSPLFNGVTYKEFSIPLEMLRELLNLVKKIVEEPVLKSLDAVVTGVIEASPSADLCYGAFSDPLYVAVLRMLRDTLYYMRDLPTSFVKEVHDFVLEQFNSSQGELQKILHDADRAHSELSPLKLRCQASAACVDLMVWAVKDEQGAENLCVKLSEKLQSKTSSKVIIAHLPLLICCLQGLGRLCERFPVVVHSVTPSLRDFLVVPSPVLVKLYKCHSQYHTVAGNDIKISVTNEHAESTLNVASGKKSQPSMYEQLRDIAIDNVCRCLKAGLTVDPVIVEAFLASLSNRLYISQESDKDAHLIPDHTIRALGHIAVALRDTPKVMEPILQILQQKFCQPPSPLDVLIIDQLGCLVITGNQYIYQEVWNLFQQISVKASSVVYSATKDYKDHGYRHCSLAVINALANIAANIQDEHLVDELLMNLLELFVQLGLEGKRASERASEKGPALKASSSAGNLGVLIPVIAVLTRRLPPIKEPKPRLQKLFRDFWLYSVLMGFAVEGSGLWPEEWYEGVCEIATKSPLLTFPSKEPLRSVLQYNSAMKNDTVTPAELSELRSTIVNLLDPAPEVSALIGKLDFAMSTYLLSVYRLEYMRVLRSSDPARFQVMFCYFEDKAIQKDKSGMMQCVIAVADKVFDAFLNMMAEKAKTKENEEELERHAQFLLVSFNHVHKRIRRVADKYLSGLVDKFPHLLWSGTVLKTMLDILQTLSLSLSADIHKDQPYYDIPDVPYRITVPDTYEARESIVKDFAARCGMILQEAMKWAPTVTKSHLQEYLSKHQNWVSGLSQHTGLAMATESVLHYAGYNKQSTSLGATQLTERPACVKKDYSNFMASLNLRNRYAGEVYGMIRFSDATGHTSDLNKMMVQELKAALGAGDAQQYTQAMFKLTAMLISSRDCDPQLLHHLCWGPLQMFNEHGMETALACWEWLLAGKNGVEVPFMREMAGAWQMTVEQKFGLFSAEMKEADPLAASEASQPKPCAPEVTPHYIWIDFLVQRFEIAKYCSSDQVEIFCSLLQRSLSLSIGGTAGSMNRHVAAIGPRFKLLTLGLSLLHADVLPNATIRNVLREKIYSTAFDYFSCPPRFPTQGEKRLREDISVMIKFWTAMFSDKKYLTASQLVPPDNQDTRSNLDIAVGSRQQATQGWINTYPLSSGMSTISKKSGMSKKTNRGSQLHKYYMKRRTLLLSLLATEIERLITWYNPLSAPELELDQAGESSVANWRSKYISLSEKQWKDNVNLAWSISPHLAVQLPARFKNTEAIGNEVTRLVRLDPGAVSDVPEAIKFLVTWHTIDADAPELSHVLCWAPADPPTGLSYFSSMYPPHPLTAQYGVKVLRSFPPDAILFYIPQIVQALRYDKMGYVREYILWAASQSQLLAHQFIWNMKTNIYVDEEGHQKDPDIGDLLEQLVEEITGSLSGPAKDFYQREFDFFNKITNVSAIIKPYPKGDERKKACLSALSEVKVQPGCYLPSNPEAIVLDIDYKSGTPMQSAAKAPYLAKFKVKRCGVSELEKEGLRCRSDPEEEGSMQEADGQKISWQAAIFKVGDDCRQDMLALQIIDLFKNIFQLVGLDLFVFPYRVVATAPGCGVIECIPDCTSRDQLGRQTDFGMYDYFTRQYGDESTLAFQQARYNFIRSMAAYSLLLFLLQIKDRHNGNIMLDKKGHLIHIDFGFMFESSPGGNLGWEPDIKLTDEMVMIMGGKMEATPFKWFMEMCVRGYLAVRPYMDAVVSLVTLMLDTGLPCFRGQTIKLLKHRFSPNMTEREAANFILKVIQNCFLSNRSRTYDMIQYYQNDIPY
row,SMILES,Remaining activity
1,CC1(C)OC2CC(=O)C[C@@H](O)C2O1 (some centres undefined),80%
2,COC(=O)/C=C1\C[C@H](O)C[C@@H](N=[N+]=[N-])[C@@H]1OC(=O)c1ccccc1,63%
3,[N-]=[N+]=N[C@@H]1CC=CC(=O)[C@H]1OC(=O)c1ccccc1,5%
4,COC(=O)/C=C1\C[C@H](O)C[C@@H](OC(=O)c2ccccc2)[C@@H]1OC(=O)c1ccccc1,64%
5,CC(=O)O[C@H]1CC(=O)[C@@H](OC(=O)c2ccccc2)[C@H](N=[N+]=[N-])C1,10%
6,O=C(O[C@@H]1C(=O)C=CC[C@H]1OC(=O)c1ccccc1)c1ccccc1,8%
7,[N-]=[N+]=N[C@@H]1C[C@@H](O)CC2(SCCS2)[C@H]1OC(=O)c1ccccc1,96%
8,CC(=O)O[C@@H]1CC(=O)[C@@H](OCc2ccccc2)[C@H](N=[N+]=[N-])C1,82%
9,[N-]=[N+]=N[C@@H]1C[C@@H](O)C/C(=N\O)[C@H]1OC(=O)c1ccccc1,66%
10,[N-]=[N+]=N[C@@H]1CC=CC(=O)[C@H]1OCc1ccccc1,85%
11,CC(=O)O[C@@H]1C[C@@H](N=[N+]=[N-])[C@H](OC(=O)c2ccccc2)C2(C1)SCCS2,96%
12,CC(=O)O[C@@H]1[C@@H](NC(=O)c2ccccc2)[C@@H](O)CC(=O)[C@H]1OC(C)=O,56%
13,COC(=O)/C=C1\C[C@H](O)C[C@@H](N=[N+]=[N-])[C@@H]1OCc1ccccc1,70%
14,O=C1C[C@H](O)CC=C1OC(=O)c1ccccc1,51%
15,O=C(O[C@@H]1C(=O)C[C@H](O)C[C@H]1OC(=O)c1ccccc1)c1ccccc1,84%
16,CC(=O)O[C@@H]1CC(=O)[C@@H](OC(=O)c2ccccc2)[C@H](OC(=O)c2ccccc2)C1,20%
17,CC1(C)OC2C=CC(=O)CC2O1 (centres undefined),57%
18,[N-]=[N+]=N[C@@H]1C[C@@H](O)CC(=O)[C@H]1OCc1ccccc1,85%
19,[N-]=[N+]=N[C@@H]1C[C@@H](O)CC(=O)[C@H]1OC(=O)c1ccccc1,80%
